Activity calls are given as the source filed them. The calls are words filed in the database; no cut-off is given here.

The values below come from ChEMBL document CHEMBL3046850, “In vivo antifilarial activity of some cyclic and acylic alcohols” (2011).

The subject of experiment [1] is Acanthocheilonema viteae. The experiment can be described thus: Antifilarial activity against Acanthocheilonema viteae infected Mastomys coucha assessed as microfilariacidal activity at 50 mg/kg, ip for 5 days relative to control. In kind it is functional.
Experiment [2] has as its system Acanthocheilonema viteae. The experiment can be described thus: Antifilarial activity against Acanthocheilonema viteae infected Mastomys coucha assessed as sterilization of female worms at 50 mg/kg, ip for 5 days relative to control. Type of experiment: functional, organism-based. Further details: dose 50 mg/kg.
Experiment [3] deals with Acanthocheilonema viteae. The experiment can be described thus: Antifilarial activity against Acanthocheilonema viteae infected Mastomys coucha assessed as macrofilariacidal activity at 50 mg/kg, ip for 5 days relative to control. In kind it is functional.
Experiment [4] relates to Acanthocheilonema viteae. The experiment can be described thus: Antifilarial activity against Acanthocheilonema viteae infected Mastomys coucha assessed as sterilization of female worms at 100 mg/kg, po for 5 days relative to control. Type of experiment: functional.
The subject of experiment [5] is Acanthocheilonema viteae. The experiment can be described thus: Antifilarial activity against Acanthocheilonema viteae infected Mastomys coucha assessed as macrofilariacidal activity at 200 mg/kg, ip for 5 days relative to control. Type of experiment: functional. Particulars: route intraperitoneal.

For the compound `OC1CCCCC1Nc1ccccc1` (stereo not given), the outcome with Acanthocheilonema viteae [1], in the experiment on Acanthocheilonema viteae [2] and with Acanthocheilonema viteae [3] was inactive.
Regarding `OC1CCCCC1N1CCCCC1` (stereo not given), the result with Acanthocheilonema viteae [1] and with Acanthocheilonema viteae [2] was inactive. In addition, the Activity in the experiment with Acanthocheilonema viteae [3] (route intraperitoneal) is recorded as 88.9%.
As for `CC(=O)OC(C)N1CCCCC1C` (stereo not given), the outcome with Acanthocheilonema viteae [1], in the experiment with Acanthocheilonema viteae [2] and in the experiment on Acanthocheilonema viteae [3] was inactive.
Consider `CC(=O)OC(C)Nc1ccco1` (stereo not given), for which the outcome in the experiment with Acanthocheilonema viteae [1], with Acanthocheilonema viteae [2] and in the experiment on Acanthocheilonema viteae [3] was inactive.
Regarding `CC(=O)OC1CCCCC1N1CCCCC1` (stereo not given), the outcome in the experiment on Acanthocheilonema viteae [1], in the experiment with Acanthocheilonema viteae [2] and with Acanthocheilonema viteae [3] was inactive.
As for `CC(O)Nc1ccco1` (stereo not given), the results for the Activity with Acanthocheilonema viteae [4] and with Acanthocheilonema viteae [5] were 82% and 81.3%, respectively. For the same compound, in the experiment on Acanthocheilonema viteae [1], the outcome was inactive.
In the case of `OC1CCCCC1N1CCOCC1` (stereo not given), the result in the experiment on Acanthocheilonema viteae [1], in the experiment on Acanthocheilonema viteae [2] and in the experiment with Acanthocheilonema viteae [3] was inactive.
As to `CC(=O)OC1CCCCC1N1CCOCC1` (stereo not given), the outcome in the experiment on Acanthocheilonema viteae [1], with Acanthocheilonema viteae [2] and in the experiment on Acanthocheilonema viteae [3] was inactive.
In the case of `CC(=O)OC1CCCCC1Nc1ccccc1` (stereo not given), the outcome with Acanthocheilonema viteae [1], in the experiment on Acanthocheilonema viteae [2] and with Acanthocheilonema viteae [3] was inactive.
On to `CC(=O)OC(C)N1CCC(Cc2ccccc2)CC1` (stereo not given), for which the result in the experiment on Acanthocheilonema viteae [1] and in the experiment on Acanthocheilonema viteae [2] was inactive. The Activity with Acanthocheilonema viteae [5] is recorded as 83.4%.
Take `CC(=O)OC1CCCCC1N1CCC(Cc2ccccc2)CC1` (stereo not given): the outcome in the experiment on Acanthocheilonema viteae [1], in the experiment on Acanthocheilonema viteae [2] and in the experiment with Acanthocheilonema viteae [3] was inactive.
Turning to `CC(O)N1CCC(Cc2ccccc2)CC1` (stereo not given), the result in the experiment on Acanthocheilonema viteae [1], in the experiment on Acanthocheilonema viteae [2] and with Acanthocheilonema viteae [3] was inactive.
Turning to `CC(O)N1CCCCC1C` (stereo not given), the outcome with Acanthocheilonema viteae [1], in the experiment with Acanthocheilonema viteae [2] and with Acanthocheilonema viteae [3] was inactive.
In the case of `OC1CCCCC1N1CCC(Cc2ccccc2)CC1` (stereo not given), the outcome in the experiment on Acanthocheilonema viteae [1], in the experiment with Acanthocheilonema viteae [2] and in the experiment on Acanthocheilonema viteae [3] was inactive.
On to `CC(=O)OC1CCCCC1N1CCN(C)CC1` (stereo not given), for which the outcome in the experiment with Acanthocheilonema viteae [1], with Acanthocheilonema viteae [2] and with Acanthocheilonema viteae [3] was inactive.
For `CN1CCN(C2CCCCC2O)CC1` (stereo not given), the result in the experiment on Acanthocheilonema viteae [1] and in the experiment with Acanthocheilonema viteae [2] was inactive.
For `CCN(CC)C(=O)N1CCN(C)CC1` [DIETHYLCARBAMAZINE], in the experiment on Acanthocheilonema viteae [1] (route intraperitoneal), the Activity is 90%. The outcome in the experiment with Acanthocheilonema viteae [2] and in the experiment with Acanthocheilonema viteae [3] was inactive.
